Laboratory results taken from US7576224B2, “Insecticidal (dihalopropenyl) phenylalkyl substituted dihydrobenzofuran and dihydrobenzopyran derivatives” (FMC Corporation, priority 2003, dated 2009).

What was measured:
[1] = tested on: Diamondback Moth (Plutella xylostella); assay: Foliar treated test against diamondback moth (cabbage leaf discs); type: in vivo; details: rate of application 30 ppm; foliage; 96 hour exposure
Protocol: Four replicates, each containing one cabbage leaf disc, for each rate of application of test compound were dipped. The four cabbage leaf discs for each replicate treated were immersed for five seconds in the solution of test compound as described above. Each discs was then placed in individual 50 mm Petrie dishes containing a filter paper 42.5 mm in diameter that had been moistened with 100 μL of water. The uncovered Petrie dishes were then set aside until the leaf discs were dry. After this time, two third-instar diamondback moth larvae (10-14 days old) were carefully placed on each leaf disc. A tight-fitting lid was then placed on each Petrie dish, which was which was then held in a growth chamber for a 96 hour exposure period at 25° C., 50% relative humidity and photo-period of 12 hours light and 12 hours dark. At the end of the 96 hour exposure period the Petrie dishes were uncovered, and the numbers of dead, moribund, and live insects were counted. Using the insect counts, the efficacy of the test compound was expressed in percent control by methods set forth above in tests against the tobacco budworm and cabbage looper.

[2] = tested on: tobacco budworm (Heliothis virescens [Fabricius]); assay: Surface-treated diet test against tobacco budworm; type: in vivo; details: 0.25 millimolar on the surface of the diet, second instar larvae, five-day exposure; for Percent Growth Inhibition: insect weight relative to untreated controls
Excerpt: Surface-Treated Diet Test Against Tobacco Budworm
The test compounds of formula I are identified by numbers that correspond to those in Table 1.

cabbage looper = assay: Whole plant foliar treated test against cabbage looper; type: in vivo, Trichoplusia ni; details: cabbage plants sprayed, 96 hour exposure; for Percent Control at 25 g: rate of application 25 g; for Percent Control at 50 g: rate of application 50 g; for Percent Control at 100 g: rate of application 100 g
Protocol: Whole Plant Foliar Treated Test Against Cabbage Looper
For each rate of application of test compound, a 15 mL aliquot of test solution was prepared. Sufficient test compound was dissolved in 1.5 mL of acetone to provide an application rate as high as 1000 grams/Ha. Each solution was then added to 13.5 mL of water containing 300 ppm of a surfactant. There were four replicates for each rate of application of test compound, and all tests included a known chemical standard as well as a standard of water and surfactant and untreated checks.
A maximum of 14 appropriately sized cabbage plants for each rate of application and replicate were arranged in a 28 pot plastic flat and sprayed with the 15 mL sample of test compound using an traveling boom sprayer equipped with a cone spray tip at a rate of 30 gallons/acre under a pressure of 40-44 psi. The untreated checks were sprayed first, followed by the test compounds and standards, all in order of lowest to highest rates of application. Once the spraying was complete, the test plants were allowed to air-dry on the conveyor on which they were sprayed.
For each rate of application and replication, sufficient Petrie dishes, 50×9 mm in size, were lined with filter paper disks and each were moistened with 0.5 mL of distilled water. From each replicate cabbage plant at least three 2.5 cm disks were cut Each leaf disk was then placed in an individual Petrie dishes with the adaxial side of the leaf facing up. Following placement of the leaf disks, two neonate cabbage looper larvae were placed on each disk. Upon completion of infestation each Petrie dish was covered and held in a growth chamber for a 96 hour exposure period at 25° C., 40%-60% relative humidity and photo-period of 12 hours light and 12 hours dark. At the end of the 96 hour exposure period the Petrie dishes were opened, and the numbers of dead, moribund, and live insects were counted. Using the insect counts, the efficacy of the test compound was expressed in percent control. Percent control is derived from the total number of dead insects (TD) plus the total number of moribund insects (TM) as compared to the total number of insects (TI) in the test:
[formula] The condition of the test plants was also observed for phytotoxicity and for reduction of feeding damage as compared to an untreated control.

[3] = tested on: cabbage looper (Trichoplusia ni [Hubner]); assay: Foliar treated test against cabbage looper (chick pea plants); type: in vivo; details: rate of application 30 ppm; foliage; 96 hour exposure
Excerpt: (§1) Foliar Treated Test Against Tobacco Budworm and Cabbage Looper
(§2) Nine-to-ten day-old chick pea plants (Cicer arietinum) were sprayed at 15 psi to runoff on both upper and lower leaf surfaces with solutions of test compound to provide application rates as high as 1000 ppm of test chemical. The solvent used to prepare the solutions of test compound was 10% acetone or methanol (v/v) and 0.1% of the surfactant octylphenoxypolyethoxyethanol in distilled water. Four replicates, each containing one chick pea plant, for each rate of application of test compound were sprayed. The treated plants were transferred to a hood where they were kept until the spray had dried.
(§3) The four chick pea plants for each replicate treated with test compound as described above were removed from their pots by cutting the stems just above the soil line. The excised leaves and stems from the four plants in each replicate were placed in individual 237 mL (8-ounce) paper cups, which contained a moistened filter paper. Five second-instar (7 days old) tobacco budworms or cabbage loopers (7 days old) were counted into each cup, taking care not to cause injury. An opaque plastic lid was placed on each cup, which was then held in a growth chamber for a 96 hour exposure period at 25° C., 50% relative humidity and photo-period of 12 hours light and 12 hours dark. At the end of the 96 hour exposure period the cups were opened, and the numbers of dead, moribund, and live insects were counted. Using the insect counts, the efficacy of the test compound was expressed in percent control. Percent control is derived from the total number of dead insects (TD) plus the total number of moribund insects (TM) as compared to the total number of insects (TI) in the test:
(§4) The condition of the test plants was also observed for phytotoxicity and for reduction of feeding damage as compared to an untreated control.

[4] = tested on: tobacco budworm (Heliothis virescens [Fabricius]); assay: Foliar treated test against tobacco budworm (chick pea plants); type: in vivo; details: rate of application 30 ppm; foliage; 96 hour exposure
Excerpt: as §1, §2, §3, §4

[5] = Photostability (rate of photolysis, thin film on glass, Suntest CPS illuminator); type: physicochemical; details: for Percent of Compound 12 Half-life: relative photolysis half-life compared to compound 12; for Photolysis Half-life: thin film on glass coverslips, filtered xenon lamp, about 25° C.
Protocol: These tests were conducted in the following manner:
For each compound tested, three glass microscope coverslips (12 mm in diameter) for each illumination period (1, 3, 6, 12, and 24 hours) were spotted with 10 microliters of a one mg/mL acetonitrile or methanol solution of test compound. Three coverslips were also spotted with test compound and were not illuminated. The material on these non-illuminated coverslips was analyzed at the end of the experiment as described below to determine the test compound stability on glass. The solvents in each 10 microliter solution on each coverslip were allowed to evaporate leaving a thin film of test compound on each coverslip. Three of the coverslips representing the zero hour illumination period were then placed in a 20 mL scintillation vial. In the vial was placed one mL of acetonitrile, which extracted the test chemical from the coverslip. The solution was then transferred to a two-dram vial for analysis by HPLC. The average HPLC peak area generated by this sample defined the initial level of test compound. The remaining coverslips were then placed in the water-cooled chamber of the exposure platform of a Suntest CPS illuminator (Heraeus Instruments GmbH; Bereich Original Hanau, Hersaeusstrasse R-14, Postfach 1563, D-6450 Hanau 1). The exposure platform was covered with a quartz plate and maintained at about 25° C. for the duration of the test. The Suntest CPS illuminator employs a filtered xenon lamp, which provides illumination of a similar spectrum and intensity as sunlight. Three coverslips for each test compound were removed from the illuminator at 1, 3, 6, 12, and 24 hours of continuous illumination. Approximately eight hours of illumination is equivalent to one summer day at 40° N latitude. The three coverslips from each of the illumination periods were treated as described above and analyzed by HPLC. The average HPLC peak area from each of these illumination periods represents a diminished amount of test compound when compared to the initial level of test compound as determined from the zero hour illumination sample. The percents of test compound remaining from each of these illumination periods were used to generate a degradation curve from which a half-life in hours was determined for each test compound.

Percent of Compound 12 Half-life [5] [%]	Photolysis Half-life [5] [h]	Structure (SMILES)	Percent Control DBM (Diamondback Moth) [1] [%]	Percent Mortality [2] [%]	Percent Growth Inhibition [2] [%]	Percent Control at 25 g (cabbage looper) [%]	Percent Control at 50 g (cabbage looper) [%]	Percent Control at 100 g (cabbage looper) [%]	Percent Control CL (Cabbage Looper) [3] [%]	Percent Control TBW (Tobacco Budworm) [4] [%]
–	–	CC1(C)Cc2cc(C(F)(F)F)cc(OCCCCOc3c(Cl)cc(OCC=C(Cl)Cl)cc3Cl)c2O1 [Compound 20, 5-(3,3-dichloroprop-2-enyloxy)-2-{4-[2,2-dimethyl-5-(trifluoromethyl)(2,3-dihydrobenzo[2,3-b]furan-7-yloxy)]-butoxy}1,3-dichlorobenzene]	–	100	100	–	–	–	–	–
–	–	CC1(C)Cc2cccc(OC(=O)NCCCOc3c(Cl)cc(OCC=C(Cl)Cl)cc3Cl)c2O1 [Compound 53, N-{3-[4-(3,3-dichloroprop-2-enyloxy)-2,6-dichlorophenoxy]propyl}(2,2-dimethyl(2,3-dihydrobenzo[2,3-b]furan-7-yloxy))-carboxamide]	–	100	100	–	–	–	–	–
32	6	Cc1cc2cccc(OCCCCOc3c(Cl)cc(OCC=C(Cl)Cl)cc3Cl)c2o1 [X]	85	–	–	8	8	13	50	96
21	4	ClC(Cl)=CCOc1cc(Cl)c(OCCCCCc2cc3ccccc3o2)c(Cl)c1 [Y]	–	–	–	–	–	–	–	5
21	4	ClC(Cl)=CCOc1cc(Cl)c(OCCCCOc2cccc3occc23)c(Cl)c1 [Z]	60	–	–	–	–	–	20	60

Structure (SMILES)	Percent of Compound 12 Half-life [5] [%]	Photolysis Half-life [5] [h]	Percent Control DBM (Diamondback Moth) [1] [%]	Percent Mortality [2] [%]	Percent Growth Inhibition [2] [%]	Percent Control at 25 g (cabbage looper) [%]	Percent Control at 50 g (cabbage looper) [%]	Percent Control at 100 g (cabbage looper) [%]	Percent Control CL (Cabbage Looper) [3] [%]	Percent Control TBW (Tobacco Budworm) [4] [%]
CC1(C)Cc2cccc(OCCCCOc3c(Cl)cc(OCC=C(Cl)Cl)cc3Cl)c2O1 [Compound 12, 5-(3,3-Dichloroprop-2-enyloxy)-2-[4-(2,2-dimethyl(2,3-dihydrobenzo[2,3-b]furan-7-yloxy))butoxy]-1,3-dichlorobenzene]	100	19	91	100	100	88	100	100	96	88
ClC(Cl)=CCOc1cc(Cl)c(OCCCCOc2cccc3ccoc23)c(Cl)c1 [Compound W]	58	11	60	–	–	–	–	–	20	62
